Laboratory results published in patent US20120282676A1, “Compositions and Methods for Enhancing Lipid Production in Marine Microalgae” (Old Queens, priority 2011, published 2012).

Tests used:
[1] = system: Phaeodactylum tricornutum; test: Fatty acids extraction and analysis (FAME, GC-FID); assay type: cell-based; conditions: for more fatty acid per cell than the control: relative to NO3− replete cells (control)
Experimental: Fatty acid methyl esters (FAME) extraction and methylation was based on a method developed by Rodriguez-Ruiz et al., 1998. […] The vials were sealed with a Teflon-lined cap and boiled in a water-bath for 1 h. After incubation the vials were cooled to room temperature and 1 ml of milliQ water was added to each sample. Samples were vortexed and centrifuged (5 min, 3000 rpm) to allow phase separation and the top […] phases were transferred with glass-pipettes to GC vials with Teflon-lined caps (Fisher Scientific). FAME analyses were performed in a gas-chromatographer (GC 2010 Shimadzu, Japan) equipped with a TR-FAME (0.25 μm×60 m) column (Thermo electron corporation, USA) and a flame ionization detector (FID). Helium was used as the carrier gas at 26 psi. The injector and detector temperatures were 240° C. and 250° C. respectively. The time-oven temperature program was: 140° C. (5 min) increasing up to 240° C. at 4° C.·min^-1. FAMEs were identified by reference to authentic standards (SupelcoTM 37 component FAME, Sigma-Aldrich) processed and analyzed under the same conditions.

[2] = system: Phaeodactylum tricornutum; test: Metabolite profiling (LC-MS/MS); assay type: cell-based; conditions: W-mediated NR inactivation of NO3− grown cells
Experimental: Metabolite profiles were obtained via the method described by Bennette et al. (2010). Cells were quenched via rapid filtration of 14.3 million cells followed by immediate transfer of filters to 1.8 mL of 80:20 methanol:water at −20° C. in 35×10 mm Petri dishes. Filters were incubated at −20° C. for 15 minutes and scraped clean of cells in the extraction solvent. The 1.8 mL of extraction solvent with cells was transferred to 2 mL eppendorf tubes, followed by a 0.25 mL 80:20 methanol:water at −20° C. wash of the filter to collect remaining quenched cell material. The eppendorf tubes were spun at 4° C., and supernatant was collected. To the cell pellet, 100 μL 80:20 methanol:water at −20° C. was added, vortexed, incubated at −20° C. for 15 minutes, and pelletted. The 100 μL was combined with the original supernatant, and 50 μL transferred to GC vials. […] Standards for each metabolite, run with sample background, were used for quantification. The column used was a Synergi 2.5μ hydro RP 100A, size 100×2 mm (Phenomonex, Torrance, Calif., USA).

[3] = system: Selenastrum capricornutum; conditions: sodium tungsten in small concentration (≦400 μM); Strigul et al. 2009; cited from earlier work
[4] = system: Phaeodactylum tricornutum; test: Growth of P. tricornutum cultures in different nitrogen regimes (cell densities, Coulter counter); assay type: cell-based; conditions: relative to the control (NO3+Mo)
Experimental: This was also the reason to perform all experiments in artificial medium. […] During the period of acclimation the cultures were maintained at 18° C., under continuous light using liner cool fluorescent lamps emitting white light at 300 μmol quanta·m^-2·s^-1, and 0.2 μm filtered air bubbling. Periodic dilutions with fresh media were also executed to main the cells in exponential phase of growth. […] The light intensity and temperature were maintained as described above. After 3 days (72 h) of growth samples were collected and processed for further analyses (described bellow). Experiments were performed at least in triplicate. The cellular densities were monitored with a Coulter counter multisizer 3 (Beckman Coulter Inc, Fullerton, Calif., USA).

[5] = system: nitrate reductase (NR) protein; test: NR western-blot; assay type: cell-based, Phaeodactylum tricornutum; conditions: FIG. 2
Experimental: Protein concentrations were determined with the bicinchoninic acid method (BCA, Pierce). […] Blots were probed for 1 h with anti-NR assimilatory (1:500) purchased from Agrisera (part no. AS08-310). Subsequently, an HRP-conjugated polyclonal goat anti-rabbit IgC antibody (Pierce, 1:10000) was used followed by chemifluorescence detection (Amersham™ ECL Plus, RPN2132). Image acquisition was performed with a molecular imager XR+ system (BIORAD, USA).

[6] = system: Phaeodactylum tricornutum; test: Lipid body imaging (BODIPY, epifluorescence microscopy); assay type: cell-based; conditions: BODIPY staining, FIG. 4
Experimental: Intracellular lipid bodies were stained with 10 μg·ml^-1 BODIPY (4,4-difluoro-3a, 4a-diaza-s-indacene) probe (D-3922, Molecular Probes, Invitrogen, USA). Cells were subsequently observed with an inverted epifluorescence microscope Olympus IX71 (Olympus, Japan) equipped with a mercury X-CITE 120 lamp (EXFO, Canada), using the 482/536 nm excitation/emission filter. Images were acquired with a […] high-speed monochromatic cooled CCD camera system and IPLab for Mac (v3.9) for image processing and analysis.

[7] = system: Phaeodactylum tricornutum; conditions: preliminary LC-MS analyses, FIG. 6
From the text: FIG. 6. Liquid-chromatography mass-spectrometry (LC-MS) plot representing the relative content of triacylglycerides (TAG) species between cells growing with nitrate or ammonium as nitrogen sources. Total lipids from P. tricronutum cells growing with nitrate or ammonium as nitrogen source (from the experiments described in the main text) were extracted with the Bligh-Dyer method (Bligh and Dyer) and analysed by liquid-chromatography mass-spectrometry (LC-MS).

SMILES | Fatty acids cell^−1 (total fatty acid) ([1]; P. tricornutum, 3 days, mean ± SD, n ≧ 3) [pg] | higher rate of fatty acid accumulated per unit volume ([1]; W added to NH4+ growing cultures, compared to all the other situations, FIG. 1B) | more fatty acid per cell than the control ([1]; 3 days) [%] | glutamate and glutamine levels, share of control levels [2] | average growth rate (Dunaliella terciolecta; D. terciolecta, W in conjunction with NH4+) | more fatty acid per unit volume than nitrate-grown cultures (Dunaliella terciolecta; D. terciolecta, W in conjunction with NH4+, after 3 days, FIG. 7) [%] | higher rates of lipid production per unit biomass than in controlled conditions (Dunaliella terciolecta; tungsten in combination with ammonium, organism not given) [%] | effect on growth [3] | decrease of growth rate [4] [%] | NR protein band (approximately 100 kDa) in western-blot [5] | number of lipid bodies per cell [6] | TAG species relative to NO3− grown cells [7] | more total fatty acid than with NO3− (Dunaliella terciolecta; D. terciolecta, NH4+ as nitrogen source) [%]
[Na+].[Na+].[O]=[W](=[O])([O-])[O-] [W, sodium tungsten] | 3.99 ± 0.24 | over 30% | 40 | about 10% | increased the average growth rate | 88 | 87 | stimulated growth |  |  |  |  | 
Cl.N [NH4+, NH4Cl] |  |  | ≥ 40 |  |  |  |  |  | 10 | weak band | very high numbers | all TAG species of P. tricornutum NH4+ grown cells increase | 13
